Test results taken from EP3095787A1, “[…] ACTIVE COMPOUNDS AS DAG-LIPASE INHIBITORS” (Universiteit Leiden, priority 2015, dated 2016).

Tests used:
[1] = target: T1, FAAH (Mus musculus, UniProt O08914); assay: Gel based competitive ABPP selectivity assay with TAMRA-FP in mouse brain proteome (FAAH band); assay type: biochemical; conditions: for FAAH ABPP (10 µm) % Eff.: 10 µM inhibitor, TAMRA-FP 500 nM, mouse brain proteome, vehicle set to 100%
T1 construct: For gel based ABPP experiments mouse brain proteome (2.0 mg/mL, 20 µL) was preincubated; from tissue; host or cells: mouse brain proteome
T1 sequence (O08914 1-579): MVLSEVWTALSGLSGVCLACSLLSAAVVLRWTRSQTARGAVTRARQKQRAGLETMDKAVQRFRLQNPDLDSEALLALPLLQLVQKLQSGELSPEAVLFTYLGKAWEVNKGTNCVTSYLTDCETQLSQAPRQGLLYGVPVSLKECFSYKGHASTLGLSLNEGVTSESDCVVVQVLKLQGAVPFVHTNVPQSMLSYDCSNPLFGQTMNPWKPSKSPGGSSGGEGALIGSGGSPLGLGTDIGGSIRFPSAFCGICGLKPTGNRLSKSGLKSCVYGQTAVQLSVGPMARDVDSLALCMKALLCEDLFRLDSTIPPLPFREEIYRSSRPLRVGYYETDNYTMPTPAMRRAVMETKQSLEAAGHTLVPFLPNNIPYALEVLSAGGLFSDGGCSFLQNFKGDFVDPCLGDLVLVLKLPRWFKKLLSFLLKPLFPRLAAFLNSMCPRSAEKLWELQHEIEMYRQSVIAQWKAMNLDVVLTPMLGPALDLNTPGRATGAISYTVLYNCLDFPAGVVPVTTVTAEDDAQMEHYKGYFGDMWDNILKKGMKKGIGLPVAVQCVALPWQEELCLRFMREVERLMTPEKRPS
Procedure: For gel based ABPP experiments mouse brain proteome (2.0 mg/mL, 20 µL) was preincubated for 30 min with vehicle (DMSO) or compound to be tested in 0.5 µL DMSO at rt. And subsequently treated with 500 nM (final concentration) TAMRA-FP (TAMRA-FP was bought at Thermo Fischer) for 15 minutes at rt. The reactions were quenched with 10 µL standard 3 x SDS page sample buffer. The samples were directly loaded and resolved on SDS page gel (10 % acrylamide). The gels were scanned with a ChemiDoc MP sytem (Biorad, Cy 3 settings, 605/50 filter) and analyzed using Image Lab 4.1.
The percentage effect on FAAH was determined by measuring the integrated optical intensity of the band corresponding to FAAH (∼ 63 kD for mouse) using Image lab software. This activity was corrected for the total protein loading per lane as determined by coomassie staining and imaging with a ChemiDoc™ MP sytem (Biorad) followed by determination of the integrated optical intensity per lane by using Image Lab 4.1 software. The intensity of the protein bands from the samples treated with vehicle was set to 100%. […] N/A means less than 50% probe displacement at 10 µM inhibitor concentration.

[2] = target: T2, hDAGL-α (Homo sapiens, UniProt Q9Y4D2); assay: Biochemical hDAGL-α activity assay (PNP-butyrate hydrolysis, 96 well plate); set-up: expressed in transfected cells; host or cells: HEK293T (transient), membrane fraction; conditions: PNP-butyrate 0.3 mM, membranes of HEK293T cells transfected with hDAGL-α
T2 sequence (Q9Y4D2 1-1042): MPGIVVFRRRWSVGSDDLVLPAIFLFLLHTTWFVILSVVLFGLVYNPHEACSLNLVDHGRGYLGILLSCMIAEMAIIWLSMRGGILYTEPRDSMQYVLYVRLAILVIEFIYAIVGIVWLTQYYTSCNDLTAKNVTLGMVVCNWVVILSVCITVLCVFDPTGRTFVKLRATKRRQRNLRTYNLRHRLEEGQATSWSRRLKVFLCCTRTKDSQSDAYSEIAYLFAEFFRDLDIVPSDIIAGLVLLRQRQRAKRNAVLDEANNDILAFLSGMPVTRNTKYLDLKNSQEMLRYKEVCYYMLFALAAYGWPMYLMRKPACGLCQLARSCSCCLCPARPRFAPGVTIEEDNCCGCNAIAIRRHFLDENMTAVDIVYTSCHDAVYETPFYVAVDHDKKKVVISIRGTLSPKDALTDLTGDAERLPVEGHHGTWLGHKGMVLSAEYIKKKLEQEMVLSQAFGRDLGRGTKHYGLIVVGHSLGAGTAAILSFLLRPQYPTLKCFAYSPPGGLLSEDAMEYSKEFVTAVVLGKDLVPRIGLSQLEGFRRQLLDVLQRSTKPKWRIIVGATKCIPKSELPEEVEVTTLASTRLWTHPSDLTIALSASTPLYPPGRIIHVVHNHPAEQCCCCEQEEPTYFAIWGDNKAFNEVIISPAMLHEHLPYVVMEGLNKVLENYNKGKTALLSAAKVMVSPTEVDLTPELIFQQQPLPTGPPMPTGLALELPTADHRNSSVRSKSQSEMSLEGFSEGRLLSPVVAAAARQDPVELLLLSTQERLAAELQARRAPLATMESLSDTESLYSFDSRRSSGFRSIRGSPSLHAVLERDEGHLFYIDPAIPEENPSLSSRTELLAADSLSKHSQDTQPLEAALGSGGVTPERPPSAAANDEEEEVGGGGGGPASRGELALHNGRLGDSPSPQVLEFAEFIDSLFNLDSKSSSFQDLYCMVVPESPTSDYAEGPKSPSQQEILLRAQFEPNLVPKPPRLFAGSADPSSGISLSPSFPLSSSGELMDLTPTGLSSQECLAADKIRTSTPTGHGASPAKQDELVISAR
Procedure: The biochemical hDAGL-α activity assay is based on the hydrolysis of para-nitrophenylbutyrate (PNP-butyrate) by membrane preparations from HEK293T cells transiently transfected with hDAGL-α. 200 µL reactions were performed in flat bottom Greiner 96-wells plates in a 50 mM pH 7.2 Hepes buffer. Membrane protein fractions from HEK293T cells transiently transfected with hDAGL-α (0.05 µg/µL final concentration) were used as hDAGL-α source. Compounds to be tested were introduced in 5 µL DMSO. The mixtures were incubated for 30 minutes before 5.0 µL 12 mM PNP-butyrate (final concentration 0.3 mM) in DMSO was added (final DMSO concentration 5.0%). Kinetics were followed immediately after addition of PNP-butyrate on a plate reader (TECAN GENios® microplate reader), by measuring the OD420 every 60 seconds, for 20 minutes at 37°C. The slope of the linear region from 5-15 minutes was determined, and all experiments were performed at N = 2, n = 2 for experimental measurements and N = 2, n = 4 for controls.
Data analysis: Z'-factor of each plate was determined for the validation of each experiment, using the following formula Z' = 1-3(σpc + σnc)/(µpc - µnc). The slope from 5-15 minutes of the positive control (pc: hDAGL-α, DMSO), and the negative control (nc: Mock, DMSO) was used. Plates were accepted for further analysis when Z' > 0.6. Kinetic measurements were corrected for the average absorption of the negative control (mock, DMSO). The slope of the linear region from 5-15 minutes was determined. The average, standard deviation (SD) and standard error of mean (SEM) were calculated and normalized to the corrected positive control. Data was exported to Graphpad Prism 5.0 for the calculation of the pIC50 using a nonlinear dose-response analysis.

O=C(CCCCCc1ccccc1)c1nc2ncccc2o1 [Compound 1, 1-(Oxazolo[4,5-b]pyridin-2-yl)-6-phenylhexan-1-one, reference compound]
FAAH ABPP (10 µm) % Eff. [1]: 99%
DAGL-α Activity assay pIC50 [2]: 7.43

Cc1ccc(-c2cnc3nc(C(=O)CCCCCc4ccccc4)oc3c2)cc1 [Compound 25, 1-(6-(p-Tolyl)oxazolo[4,5-b]pyridin-2-yl)-6-phenylhexan-1-one]
FAAH ABPP (10 µm) % Eff. [1]: N/A (N/A means less than 50% probe displacement at 10 µM inhibitor concentration)
FAAH labeling ([1]; up to a concentration of 10 µM, n=3): did not block FAAH labeling
IC50 ([2]; read-out: DAGL-α Activity assay pIC50 (converted)): 3.02 nM
